Type in all cases: physicochemical
The nature of data set [1]: Particle size distribution by laser diffraction (Malvern Mastersizer 3000). As to conditions: for PSD D10 / PSD D50 / PSD D90: micronised API after jet milling. On the procedure:
Particle size distribution was measured using a Malvern Mastersizer 3000. The sample for analysis (10 mg) was suspended in 0.1% lecithin in isooctane (10 mL) and sonicated to disperse the particles prior to measurement. A single sample was prepared for each measurement.
Two batches were prepared and particle size distribution measured using a Mastersizer 3000 (Table 8).

Data set [2] is described as follows: Moisture content by Karl Fischer coulometry. Here is the method: Three assay determinations were made for each assay and the mean value reported. Moisture content was measured by Karl Fischer coulometry using a Metrohm 851 Tritrando coulometer and sample oven. 50 mg of each sample was heated to 80° C. Lactose monohydrate was used as a bracketing standard. Single measurements were made for each sample. The emitted dose was measured using Dosage Unit Sampling Apparatus (DUSA) at 100 L/min. The samples were recovered using 50 mL of diluent. Ten determinations were performed and mean value reported

Data set [3] in a line: SEM, XRPD and overall stability assessment of micronised drug substance. To be noted: 1 month 25°C/60% RH and 40°C/75% RH, then four months laboratory conditions. Here is the method:
Scanning electron microscopy and x-ray powder diffraction were performed at the University of Bath.
SEM images were recorded (FIGS. 1 and 2) and the polymorphic stability was assessed by XRPD (FIGS. 3 and 4) and DSC (FIG. 6). The characterization was then repeated after a further four months at laboratory conditions.

[4] abbreviates: +4 months at laboratory conditions.

Take `Br.COC(=O)c1ccc2c(c1)NC(=O)/C2=C(\Nc1ccc(N(C)C(=O)CN2CCN(C)CC2)cc1)c1ccccc1` [Batch 1]: in data set [1], the “PSD D10” value worked out at 0.04 μm, the “PSD D50” value is recorded as 1.03 μm and the “PSD D90” value was found to be 2.66 μm.
The matching figures for `Br.COC(=O)c1ccc2c(c1)NC(=O)/C2=C(\Nc1ccc(N(C)C(=O)CN2CCN(C)CC2)cc1)c1ccccc1` [Batch 2]: 0.60 μm, 1.51 μm and 2.87 μm.
For the molecule `COC(=O)c1ccc2c(c1)NC(=O)/C2=C(\Nc1ccc(N(C)C(=O)CN2CCN(C)CC2)cc1)c1ccccc1` [Micronised Nintedanib HBr], the “Water Content” value was found to be 5.3% in data set [2] (1 month 25/60), 5.2% in data set [2] (1 month 40/75), 4.7% in data set [2] (setting [4]) and 5.3% in data set [2] (T0). The D10 amounted to 0.6 mcm in data set [1] (1 month 25/60), 0.6 mcm in data set [1] (1 month 40/75), 0.6 mcm in data set [1] (setting [4]) and 0.5 mcm in data set [1] (T0). The D50 in data set [1] (1 month 25/60) was 1.6 mcm; in data set [1] (1 month 40/75), 1.5 mcm; in data set [1] (setting [4]) it was 1.5 mcm; in data set [1] (T0), 1.5 mcm. Besides, the D90 was 3.0 mcm in data set [1] (1 month 25/60), 2.6 mcm in data set [1] (1 month 40/75), 2.9 mcm in data set [1] (setting [4]) and 2.8 mcm in data set [1] (T0). In addition, the “stability of micronised drug substance (PSD, moisture, SEM, XRPD, DSC)” value in data set [3] is “did not change during the study”.

The record behind these values is patent US20250268821A1 (AVALYN PHARMA INC., priority 2022, published 2025).
